Data reported in US12636295B2, “Compositions and methods for the treatment of obstructive sleep apnoea (OSA)” (Incannex Healthcare Limited, priority 2020, dated 2026).
Where two headings read alike, the source gives them in different places.

Tests used:
[1] = after ingestion; cited from earlier work
subjects with OSA [2] = details: cited from earlier work; for Reduction in AHI (%): relative to baseline or placebo
subjects with OSA [3] = experiment: Published studies on the effect of single agent acetazolamide on AHI, with linear trend line dose-response; assay type: in vivo, human; details: from linear trend line of published studies
Excerpt: These studies tested a range of doses across a selection of different patient cohorts.

subjects with OSA [4] = experiment: Published study (Carley et al. 2018) on the effect of single agent dronabinol on AHI, with trend line dose-response; assay type: in vivo, human; details: from trend line of published data

CC(=O)Nc1nnc(S(N)(=O)=O)s1 [Acetazolamide, acetazolamide]
Time to mean peak plasma concentrations [1]: about 2 hours
Acetazolamide AHI (subjects with OSA [2]; 250 mg/day, Chin, 1992, baseline/placebo AHI 38.9): 29.6
Reduction in AHI (%) (subjects with OSA [2]; 250 mg/day, Chin, 1992): 23.9%
Acetazolamide AHI (subjects with OSA [2]; 250 mg/day, Tojima, 1988, baseline/placebo AHI 25): 18.1
Reduction in AHI (%) (subjects with OSA [2]; 250 mg/day, Tojima, 1988): 27.6%
Reduction in AHI (%) (subjects with OSA [2]; 351.2 mg/day, Inoue, 1999): 29.5%
Acetazolamide AHI (subjects with OSA [2]; 375 mg/day, Inoue, 1987, baseline/placebo AHI 26.9): 17.3
Reduction in AHI (%) (subjects with OSA [2]; 375 mg/day, Inoue, 1987): 35.7%
Acetazolamide AHI (subjects with OSA [2]; 750 mg/day, Eskandari, 2018, baseline/placebo AHI 38): 23
Reduction in AHI (%) (subjects with OSA [2]; 750 mg/day, Eskandari, 2018): 39.5%
Acetazolamide AHI (subjects with OSA [2]; 1000 mg/day, Edwards, 2012, baseline/placebo AHI 49.6): 24
Reduction in AHI (%) (subjects with OSA [2]; 1000 mg/day, Edwards, 2012): 51.6%
Acetazolamide AHI (subjects with OSA [2]; 1000 mg/day, Whyte, 1988, baseline/placebo AHI 50): 26
Reduction in AHI (%) (subjects with OSA [2]; 1000 mg/day, Whyte, 1988): 48%
Predicted AHI reduction (%), single agent (subjects with OSA [3]; acetazolamide 125 mg): 23.4%
Predicted AHI reduction (%), single agent (subjects with OSA [3]; acetazolamide 250 mg): 27.1%
Predicted AHI reduction (%), single agent (subjects with OSA [3]; acetazolamide 500 mg): 34.5%

CCCCCc1cc(O)c2c(c1)OC(C)(C)C1CCC(C)=CC21 (stereo not drawn) [Dronabinol]
Predicted AHI reduction (%), single agent (subjects with OSA [4]; dronabinol 2.5 mg/day): 23.4%
Predicted AHI reduction (%), single agent (subjects with OSA [4]; dronabinol 5 mg/day): 26.5%
Time to peak effects [1]: 2 to 4 h
Time to significant concentrations in plasma/blood [1]: 30 to 60 min
